# In patent US11279714B2, “Anti-infective compounds” (priority 2014, dated 2022):
# Key:
# [1] = system: M. tuberculosis H37Rv expressing the green fluorescent protein (H37Rv-GFP); assay: microbe, parasite or virus in culture; assay type: cell-based; details: Mycobacterium tuberculosis, H37RV, 120 h; read-out: QUM (MIC50)
# [2] = system: Raw 264.7 cells infected with H37Rv-GFP; assay: microbe, parasite or virus in culture; assay type: cell-based, M. tuberculosis; details: Mycobacterium tuberculosis, H37RV, 120 h; read-out: QIM (MIC50)
SMILES,MIC50 [1] [µM],MIC50 [2] [µM],melting point [°C]
O=C(Nc1ccc(Oc2ccccc2)cc1)c1cc2sc(N3CCCCC3)nc2s1 [Compound 61],1 to 20,< 1,201
O=C(Nc1ccc(F)cc1)c1cc2sc(N3CCNCC3)nc2s1 [Compound 139],1 to 20,1 to 20,247.5
Cc1nc2cc(NC(=O)c3cc4sc(N(C)CCO)nc4s3)ccc2o1 [Compound 201],< 1,1 to 20,226.3
COc1ccc(OC(=O)c2ccc(NC(=O)c3cc4sc(N5CCOCC5)nc4s3)cc2)cc1 [Compound 111],1 to 20,< 1,302.6
Cn1cc2ccc(NC(=O)c3cc4sc(N5CCOCC5)nc4s3)cc2n1 [Compound 132],> 20,< 1,313.7
Cc1nc2cc(CCNC(=O)c3cc4sc(N5CCOCC5)nc4s3)ccc2o1 [Compound 177],1 to 20,< 1,219.4
COc1ccc(NC(=O)c2cc3sc(N4CCC(C(=O)N5CCOCC5)CC4)nc3s2)cc1 [Compound 125],< 1,< 1,268
COc1ccc(NC(=O)c2cc3sc(N4CCC(F)(F)CC4)nc3s2)cc1 [Compound 72],1 to 20,< 1,263.5
O=C(Nc1cc(-c2ccccc2)[nH]n1)c1cc2sc(N3CCOCC3)nc2s1 [Compound 160],> 20,< 1,305
COc1ccc(NC(=O)c2cc3scnc3s2)cc1 [Compound 75],1 to 20,> 20,212
COc1ccc(NC(=O)c2cc3sc(N4CCN(C)CC4)nc3s2)cc1 [Compound 110],1 to 20,< 1,219.8
O=C(Nc1ccc(C(F)(F)F)cc1)c1cc2sc(N3CCOCC3)nc2s1 [Compound 107],> 20,< 1,259.3
COc1ccc(NC(=O)c2cc3nc(N4CCCCC4)sc3s2)cn1 [Compound 10],> 20,> 20,270
N#Cc1ccc(NC(=O)c2cc3sc(N4CCCCC4)nc3s2)cc1 [Compound 54],< 1,< 1,177
O=C(Nc1ccc(O)cc1)c1cc2nc(N3CCCCC3)sc2s1 [Compound 18],1 to 20,> 20,266
CN(C)C(=O)C1CCN(c2nc3sc(C(=O)Nc4ccc5oc(CN6CCOCC6)nc5c4)cc3s2)CC1 [Compound 196],1 to 20,1 to 20,239
CN(C)C(=O)C1CCN(c2nc3sc(C(=O)n4nc(-c5ccc(N)cc5)cc4O)cc3s2)CC1 [Compound 198],> 20,> 20,269
COc1ccc(OCCNC(=O)c2cc3sc(N4CCOCC4)nc3s2)cc1 [Compound 82],> 20,1 to 20,172.1
COc1ccc(NC(=O)c2cc3sc(N4CCC(Oc5ccccc5)CC4)nc3s2)cc1 [Compound 106],> 20,< 1,225
COc1ccc(C(=O)Nc2cc3sc(N4CCCCC4)nc3s2)cc1 [Compound 98],> 20,> 20,92
N#Cc1ccc(NC(=O)c2cc3nc(N4CCCCC4)sc3s2)cc1 [Compound 32],1 to 20,< 1,163
CCC1CN(c2nc3sc(C(=O)Nc4ccc5oc(C)nc5c4)cc3s2)CCO1 (stereo not drawn) [Compound 153],< 1,< 1,214
COc1ccc(NC(=O)c2cc3sc(N4CCOCC4)nc3s2)cc1 [Compound 66],1 to 20,< 1,248.8
COc1ccc(CNC(=O)c2cc3nc(N4CCCCC4)sc3s2)cc1 [Compound 7],> 20,> 20,179

SMILES,MIC50 [1] [µM],MIC50 [2] [µM],melting point [°C]
Cc1nc2cc(NC(=O)C3CCc4nc(N5CCOCC5)sc4C3)ccc2o1 (stereo not drawn) [Compound 170],> 20,> 20,239
CC(C)(C)OC(=O)n1ncc2cc(NC(=O)c3cc4sc(N5CCOCC5)nc4s3)ccc21 [Compound 88],> 20,> 20,331.7
Cc1ccc(-c2ccc(NC(=O)c3cc4sc(N5CCOCC5)nc4s3)cc2)cn1 [Compound 161],> 20,< 1,292
O=C(Nc1ccc(F)cc1)c1cc2nc(N3CCCCC3)sc2s1 [Compound 8],1 to 20,1 to 20,218
O=C(Nc1ccccc1)c1cc2nc(N3CCCCC3)sc2s1 [Compound 25],> 20,1 to 20,222.6
O=C(Nc1ccc(F)c(F)c1)c1cc2sc(N3CCCCC3)nc2s1 [Compound 36],1 to 20,< 1,218
Cc1nnc(-c2ccc(NC(=O)c3cc4sc(N5CCOCC5)nc4s3)cc2)o1 [Compound 103],< 1,< 1,319.1
O=C(Nc1ccc(Oc2ccc(Cl)cc2)cc1)c1cc2sc(N3CCOCC3)nc2s1 [Compound 146],1 to 20,< 1,225
COc1ccc(NC(=O)c2cc3sc(N4CCN5CCCC5C4)nc3s2)cc1 (stereo not drawn) [Compound 100],1 to 20,< 1,195
CN(C)C(=O)C1CCN(c2nc3sc(C(=O)Nc4ccc5oc(CCc6ccc(F)cc6)nc5c4)cc3s2)CC1 [Compound 197],> 20,< 1,259
Cc1nc2cc(NC(=O)c3cc4sc(N5CCOCC5C(=O)N(C)C)nc4s3)ccc2o1 (stereo not drawn) [Compound 175],> 20,> 20,288.6
Cc1nc2cc(NC(=O)c3cc4sc(N5CCOCC5)nc4s3)ccc2o1 [Compound 83],< 1,< 1,268.3
COC(=O)C1CCN(C(=O)c2cc3sc(N4CCCCC4)nc3s2)CC1 [Compound 56],1 to 20,1 to 20,136
CCOC(=O)c1ccc(NC(=O)c2cc3sc(N4CCOCC4)nc3s2)cc1 [Compound 108],1 to 20,< 1,274
CC1CCN(c2ccc(NC(=O)c3cc4sc(N5CCOCC5)nc4s3)cc2)CC1 [Compound 194],1 to 20,< 1,278
COc1ccc(NC(=O)c2ccc3nc(N4CCCCC4)ccc3c2)cc1 [Compound 17],1 to 20,> 20,209
Cn1cc(F)c(-c2ccc(NC(=O)c3cc4sc(N5CCOCC5)nc4s3)cc2)n1 [Compound 162],1 to 20,< 1,280.5
Cc1nc2cc(Cl)c(NC(=O)c3cc4sc(N5CCOCC5)nc4s3)cc2o1 [Compound 147],> 20,> 20,275.3
Cc1nnc(-c2ccc(NC(=O)c3cc4sc(N5CCOCC5)nc4s3)cc2Cl)o1 [Compound 148],> 20,> 20,248
O=C(Nc1ccc(F)cc1)c1cc2sc(N3CCCCC3)nc2s1 [Compound 53],< 1,< 1,233
CCN(Cc1ccc(OC)cc1)c1nc2sc(C(=O)Nc3ccc(OC)cc3)cc2s1 [Compound 114],1 to 20,< 1,112
O=C(Nc1cccc(Br)c1)c1cc2sc(N3CCOCC3)nc2s1 [Compound 118],> 20,< 1,199
O=C(Nc1ccc(-c2cc[nH]n2)cc1)c1cc2sc(N3CCOCC3)nc2s1 [Compound 156],1 to 20,< 1,319
N#Cc1ccc(NC(=O)c2cc3sc(N4CCOCC4)nc3s2)cc1 [Compound 112],> 20,< 1,212
